# Measured values as given in patent publication US11806359B2 (priority 2020, dated 2023).
# Columns and labels:
# [1] = tested on: Marburgvirus (MARV/Ci67); format: cell-based; conditions: based on the oleandrin content; final concentration of compositions 20 microg/mL
# [2] = tested on: HTLV-1+ SLB1 lymphoma T-cell-line; assay: Cytotoxicity/apoptosis in HTLV-1+ SLB1 cells, Annexin V-FITC/PI staining; format: cell-based; conditions: 72 hrs
# Description: SLB1 T-cells were treated with increasing concentrations (10, 50, and 100 μg/ml) of oleandrin or a N. oleander extract for 72 hrs as described herein. As a negative control, the cells were also treated with increasing amounts (1.5, 7.5, and 15 μg) of the vehicle solution which corresponded to the volumes used in the drug-treated cultures. Cyclophosphamide (50 μM; Sigma-Aldrich)-treated cells were included as a positive control for apoptosis. Then, the samples were washed and stained with Annexin V-FITC and propidium iodide (PI) and analyzed by confocal fluorescence-microscopy. The relative percentages of Annexin V-FITC and/or PI-positive cells were quantified by fluorescence-microscopy and counting triplicate visual fields using a 20× objective lens.
# To assess the relative cytotoxicity of the oleandrin compound, extract of N. oleander, or the Vehicle control in treated cell cultures, 2×10^4 HTLV-1+ SLB1 lymphoma T-cells or activated/cultured huPBMCs were plated in 300 μl of complete medium, supplemented with antibiotics, and maintained at 37.0 under 10% CO2 in a humidified incubator. The cultures were treated with either increasing concentrations (10, 50, and 100 μg/ml) of oleandrin or N. oleander extract, or the Vehicle control ([…]) and incubated for 72 hrs. […] The total numbers of cells per field were quantified by microscopy using a DIC phase-contrast filter.
# [3] = tested on: Ebolavirus (EBOV/Kik); format: cell-based; conditions: based on the oleandrin content; final concentration of compositions 20 microg/mL
# [4] = tested on: SARS-CoV-2; assay: Direct antiviral activity against SARS-CoV-2, percent infected cells by immunostaining (Example 29); format: cell-based
# Description: The results are depicted in FIGS. 24A and 24B. […] Potential methods of action include inhibition of viral replication, assembly, and/or egress.
# Growth media was removed from confluent monolayers of approximately 10^6 Vero CCL81 cells in 6-well plates. Oleandrin was serially diluted in culture media and added to […]. The growth media was replaced with 200 μl of maintenance media containing either 1.0 μg/ml, 0.5 μg/ml, 100 ng/ml, 50 ng/ml, 10 ng/ml, or 5 ng/ml oleandrin, or matched DMSO-only controls. The plates were incubated at 37° C. for about 30 minutes prior to addition of virus.
# SARS-CoV-2 virus was added to Oleandrin treated cells and untreated cells at a MOI (multiplicity of infection) of 0.4 (entry assay) or 0.02 (replication assay). Oleandrin remained in the wells during a 1 hr incubation at 37° C.
# After 1 hr absorption, inoculation media was removed and washed 1 time with PBS (standard phosphate buffer saline).
# Media alone (no oleandrin) was added back to oleandrin-treated wells designated as “Pretreatment” on data slides. Media with indicated concentrations of oleandrin was added back to wells designated as “Duration” on data slides.
# Plates were fixed at either 24 (entry assay) or 48 (replication assay) hours post-infection and immunostained with virus-specific antibody and fluorescently labeled secondary antibody.
# Cells were imaged using an Operetta and data was analyzed using custom algorithms in Harmonia software to determine the percent of infected cells in each well.
# [5] = tested on: HTLV-1; assay: HTLV-1 replication and p19Gag particle release from SLB1 cells, Anti-HTLV-1 p19Gag ELISA; format: cell-based, human T-cell leukemia virus type-1; conditions: SLB1 cells, 10, 50, 100 μg/ml, 72 hrs
# [6] = tested on: huPBMCs; assay: Cytotoxicity/apoptosis in primary huPBMCs, Annexin V-FITC/PI staining; format: cell-based, human; conditions: compared to the vehicle control, 72 hrs
# Description: Primary buffy-coat huPBMCs were isolated and stimulated with phytohemagglutinin (PHA) and cultured in the presence of recombinant human interleukin-2 (hIL-2). The cells were then treated for 72 hrs with increasing concentrations of oleandrin or a N. oleander extract, or with increasing volumes of the Vehicle. The samples were subsequently stained with Annexin V-FITC and PI and the relative percentages of apoptotic (i.e., Annexin V-FITC and/or PI-positive) cells per field were quantified by confocal fluorescence-microscopy and counting in-triplicate.
# Cytotoxic effects of the Vehicle control, N. oleander extract, and the oleandrin compound were assessed by treating primary huPBMCs for 72 hrs, and then the cultures were stained with Annexin V-FITC and PI. The relative percentages of apoptotic (i.e., Annexin V-FITC and/or PI-positive) cells were quantified by fluorescence-microscopy and counting triplicate visual fields using a 20× objective lens. The total numbers of cells were determined using DIC phase-contrast microscopy. Cyclophosphamide (50 μM)-treated cells were included as a positive control for apoptosis. NA indicates the number of cells in this sample was too low for accurate assessment due to higher toxicity. […]
structure (smiles),measurement,setting,value
CO[C@H]1C[C@H](O[C@H]2CC[C@@]3(C)[C@H](CC[C@@H]4[C@@H]3CC[C@]3(C)[C@@H](C5=CC(=O)OC5)[C@@H](OC(C)=O)C[C@]43O)C2)O[C@@H](C)[C@@H]1O [oleandrin],efficacy against Marburgvirus,[1],efficacious
same,cytotoxicity/apoptosis at the lowest concentration,[2]; 10 μg/ml,did not induce significant cytotoxicity/apoptosis
same,cytotoxicity compared with the Vehicle control,[2]; treated HTLV-1+ SLB1 cells,not significantly higher than the Vehicle control
same,efficacy against Ebolavirus,[3],efficacious
same,antiviral activity,"[4]; 48-h, oleandrin only during the absorption phase (Pre-treatment data)",minimal antiviral activity
same,viral infection,"[4]; 48-h, treated for the duration of the assay",significantly limited viral infection
same,virus entry and/or viral replication,"[4]; 24 h, treated for the duration of the assay",significantly limited virus entry and/or viral replication
same,HTLV-1 replication or release of p19Gag-containing virus particles,[5],does not significantly inhibit
same,cytotoxicity in huPBMCs,[6],moderate cytotoxicity
